From US12115233B2, “Imaging and radiotherapeutics agents targeting fibroblast-activation protein-α (FAP-α)” (The Johns Hopkins University, priority 2017, dated 2024)

Tests used:
[1] = target: T1, human recombinant FAP (Homo sapiens, UniProt Q12884); experiment: FAP Inhibition Assay (fluorogenic FAP Assay Kit); assay type: biochemical; conditions: DPP substrate, 10 minutes at room temperature, Ki from IC50 by Cheng-Prusoff conversion, read-out: enzyme inhibitory constant (Ki)
T1 construct: purchased BPS Bioscience, San Diego, CA
T1 sequence (Q12884 26-760 limits assumed): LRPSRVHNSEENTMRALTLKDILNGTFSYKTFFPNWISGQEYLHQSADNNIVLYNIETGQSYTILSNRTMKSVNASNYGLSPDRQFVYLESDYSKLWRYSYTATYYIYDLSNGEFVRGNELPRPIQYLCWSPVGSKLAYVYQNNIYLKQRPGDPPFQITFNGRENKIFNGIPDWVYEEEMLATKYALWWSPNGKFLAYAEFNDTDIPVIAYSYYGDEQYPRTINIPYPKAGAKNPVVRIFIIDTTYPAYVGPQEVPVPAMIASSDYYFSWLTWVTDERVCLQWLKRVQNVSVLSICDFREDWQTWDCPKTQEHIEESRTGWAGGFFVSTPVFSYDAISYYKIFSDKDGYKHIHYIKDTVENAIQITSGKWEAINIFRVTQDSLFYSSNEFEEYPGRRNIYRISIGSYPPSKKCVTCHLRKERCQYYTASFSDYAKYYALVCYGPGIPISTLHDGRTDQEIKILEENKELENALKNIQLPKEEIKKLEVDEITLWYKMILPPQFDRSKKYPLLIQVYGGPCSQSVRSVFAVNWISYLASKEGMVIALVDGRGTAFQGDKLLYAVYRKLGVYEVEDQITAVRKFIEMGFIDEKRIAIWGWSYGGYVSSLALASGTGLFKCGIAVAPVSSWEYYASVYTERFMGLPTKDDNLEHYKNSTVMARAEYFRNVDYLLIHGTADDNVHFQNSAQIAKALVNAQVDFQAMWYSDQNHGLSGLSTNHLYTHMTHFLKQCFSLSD
Experimental: 1.4 FAP Inhibition Assay. The inhibitory activity of XY-FAP-01 was determined using a fluorogenic FAP Assay Kit (BPS Bioscience, San Diego, CA). Briefly, XY-FAP-01, DPP substrate, and human recombinant FAP were loaded into a 96 well plate to initiate the enzyme reaction. The reaction was left for 10 minutes at room temperature before fluorescence was measured with a VICTOR3 V multilabel plate reader (PerkinElmer Inc., Waltham, MA). Data was normalized and semi-log inhibition curves were generated in order to determine the IC50 value (concentration of XY-FAP-01 where the enzyme activity is 50% inhibited) for XY-FAP-01 and subsequent enzyme inhibition constant (Ki) using the Cheng-Prusoff conversion. Generation of semi-log inhibition curves and IC50 values were done using GraphPad Prism (San Diego, CA).

[2] = test system: FAP-positive cell lines (NCIH2228, U87, and SKMEL24); experiment: Cellular uptake of XY-FAP-01 in FAP-positive cell lines (fluorescence imaging); assay type: cell-based, human
From the text: (§1) 1.5 Cell lines. Six human cancer cell lines were used to assess binding to FAP: glioblastoma (U-87-MG), melanoma (SK-MEL-24), prostate (PC-3), non-small cell lung cancer (NCI-H2228), colorectal carcinoma (HCT 116), and lung squamous cell carcinoma (NCI-H226). From the literature, U-87-MG, SK-MEL-24, and NCI-H2228 cell lines were identified as having high levels of FAP expression [FAP-positive (+)] whereas PC-3, NCI-H226, and HCT 116 cells expressed very low levels of FAP [FAP-negative(−)]. These expression profiles were further confirmed via flow cytometry with an APC-conjugated anti-FAP antibody (R&D Systems, Minneapolis, MN) and quantitative real-time PCR. All cell lines were purchased from American Type Culture Collection (ATCC, Manassas, VA).
(§2) 1.6 Cellular Uptake Studies. All cellular uptake and specific binding studies were performed in triplicate to ensure reproducibility. Cells were detached using 0.05% trypsin (Corning), resuspended in 1 million cell aliquots in binding buffer, and incubated with various concentrations (range, 50 nM to 0.78 nM) of XY-FAP-01 for 1 hour at 37° C. and 5% CO2. […] Cellular uptake was terminated by washing cells with ice cold PBS (1×) three times. Cells were resuspended in binding buffer and transferred to a 96-well plate for imaging. Images were acquired on the LI-COR Pearl Impulse Imager (Lincoln, NE) using an excitation wavelength of 785 nm and detection of the emission wavelength at 800 nm. Images were analyzed using the LI-COR Pearl Impulse Software (Version 2.0) and fluorescence intensity was corrected for background signal and normalized to well area.

[3] = test system: FAP-negative cell lines (PC3, NCIH226, and HCT116); experiment: Cellular uptake of XY-FAP-01 in FAP-negative cell lines (fluorescence imaging); assay type: cell-based, human; conditions: all concentrations (50 nM to 0.78 nM)
From the text: as §1
as §2, with “Cells were resuspended in binding buffer and transferred to a 96-well plate for imaging. Images were acquired on the LI-COR Pearl Impulse Imager (Lincoln, NE) using an excitation wavelength of 785 nm and detection of the emission wavelength at 800 nm.” left out

[4] = test system: FAP+ U-87-MG tumor xenograft; experiment: Small-animal NIRF imaging, FAP positive xenograft; assay type: in vivo, NOD/SKID mice
Experimental: (§3) 1.7 Small-Animal Near Infrared Fluorescence (NIRF) Imaging. NIRF images were acquired on the LI-COR Pearl Impulse Imager using an excitation wavelength of 785 nm and a detection wavelength of 800 nm. Mice utilized for imaging studies were anesthetized with 3% isofluorane (v/v) and maintained at 1.5% isofluorane for the imaging procedure. NOD/SKID mice bearing FAP+ U-87-MG and FAP-PC-3 tumor xenografts were injected with 10 nmol of XY-FAP-01 via tail vein injection and images were acquired at 30 min, 1 h, 2 h, 2.5 h, and 4 h after injection of tracer.
(§4) 1.11 Xenograft Tumor Model. 6-week old female NOD/SCID mice were subcutaneously injected in the upper left and right flanks with 1 million U87(FAP+) cells and PC3 cells (FAP-) in RPMI 1640 media supplemented with 1% FBS. Mice were monitored for tumor size and used for optical or SPECT/CT imaging when the size of tumor reached around 100 mm3.

[5] = test system: FAP-PC-3 tumor xenograft; experiment: Small-animal NIRF imaging, FAP negative xenograft; assay type: in vivo, NOD/SKID mice; conditions: all imaging time points (30 min to 4 h)
Experimental: as §3, §4

[6] = Small-animal NIRF imaging, tracer clearance; assay type: in vivo, NOD/SKID mice; conditions: after one hour of distribution
Experimental: as §3, §4

Compound: CC1(C)C(=CC=C2CCCC(C=CC3=[N+](CCCCCC(=O)NCCCOc4ccc5nccc(C(=O)NCC(=O)N6CCC[C@H]6C#N)c5c4)c4ccc(S(=O)(=O)[O-])cc4C3(C)C)=C2Oc2ccc(S(=O)(=O)O)cc2)N(CCCCS(=O)(=O)O)c2ccc(S(=O)(=O)O)cc21 [XY-FAP-01]
- Ki [1]: 1.26 nM
- uptake of XY-FAP-01 in FAP-positive cell lines ([2]; 50 nM to 0.78 nM, 1 hour at 37° C.): concentration dependent uptake
- XY-FAP-01 binding when preblocked with a DPP-IV specific inhibitor ([2]; FAP-positive cell lines, 25 nM tracer, preblock with Sitagliptin): did not result in a change of binding ability
- concentration at which saturated binding was observed ([2]; FAP-positive cell lines, 1 hour at 37° C.): 25 nM
- XY-FAP-01 binding when preblocked with a FAP and DPP-IV specific inhibitor ([2]; FAP-positive cells, 25 nM tracer, preblock with Val-boroPro (Talabostat)): significantly inhibited
- uptake in vitro on FAP-α+ U87 cell line ([2]; summary statement): selective uptake
- binding of XY-FAP-01 in FAP-negative cell lines [3]: no significant binding
- tracer uptake in U-87-MG xenograft (NIRF) ([4]; 10 nmol via tail vein, as early as 30 minutes post injection): specific uptake
- tracer uptake in the positive xenograft (NIRF) ([4]; after four hours of distribution): retained
- uptake in vivo on FAP-α+ U87 tumor ([4]; summary statement): selective uptake
- tracer uptake in the FAP negative tumor (NIRF) [5]: no significant uptake
- tracer clearance (NIRF) [6]: tracer clearance via the bladder was observed
